These results are taken from US8426463B2, “[((1R,2S,5R)-2-isopropyl-5-methyl-cyclohexanecarbonyl)-amino]-acetic acid isopropyl ester and related compounds and their use in therapy” (priority 2011, dated 2013).

Each structure is given as a SMILES string.

The subject of series [1] is ocular surface (non-keratinized stratified epithelium). The series can be described thus: Ocular surface bioassay: duration of cooling after towelette wipe on closed eyelids. The class given is in vivo, human. The conditions noted are these: for Non-Keratinized Stratified Epithelia (NKSE) Ocular Surface (min), duration of cooling: applied to the closed eyelids using a towellette at 1 mg/mL in 5%-95% v/v ethanol-distilled water; for rank order of duration of action of ocular wipes: six subjects, randomized double-blind study, three trials per wipe. The protocol:
Bioassay on Non-Keratinized Stratified Epithelium: Ocular Surface
For testing on the ocular surface, a towelette containing the test compound was used as the delivery unit. The test compound was dissolved first in absolute ethanol and then distilled water was added to form a standard 1 mg/mL solution in a 3 to 5% by weight ethanol-water solution. Three mL of the test solution was then added to a 0.4 g cotton rectangle (50 mm×60 mm) (CS-being, Daisan Cotton, Japan) and individually sealed with a vacuum apparatus (Foodsaver®, Jarden Corp.). Samples were stored in a freezer or refrigerator and thawed to room temperature before use. Wiping with the cotton pad delivers 40 to 45 μL of liquid composition to the closed eyelids (˜20 to 22 μL per eye surface). Thus, if the concentration of the test compound was 1 mg/mL, the dose delivered to both eyes is a total of ˜40 to 42 μg, or ˜20 μg per eye. The presence or absence of cooling sensations felt on the ocular surface was noted as being present or absent at 5 to 10 minute intervals until no coolness was noticeable in two successive test intervals. Only the duration of cooling on the ocular surface was recorded, without an attempt to quantify the intensity of the sensation.

In series [2] the test system is philtrum skin (keratinized stratified epithelium). Briefly: Philtrum assay: duration of cooling on keratinized stratified epithelium. The class given is in vivo, human. The conditions noted are these: applied to the philtrum skin at 5 mg/mL in Aquaphor ointment. An excerpt: Bioassay on Keratinized Stratified Epithelium: Philtrum Assay
The philtrum is the midline groove above the border of the upper lip. The site of drug testing was the skin above the upper lip (above the vermilion border of the lips), on the philtrum, lateral to the philtrum until the nasolabial folds, and sometimes on the lower nostrils (subnasale). This part of the face is known to be densely innervated with cool/cold receptors, second only to the surfaces of the eyeball and anogenitalia. It is also known from the scientific literature that the area around the lips has a high density of “cold spots” (see, e.g., Dhaka et al., “Visualizing cold spots: TRPM8-expressing sensory neurons and their projections”, J. Neuroscience, Vol. 28, pp. 566-575, 2008).
To test for anti-nociceptive activity, the test substance is first dissolved (5 mg/mL) in an ointment (Aquaphor®, which is 41% petrolatum, and the rest mineral oil, ceresin and lanolin alcohol) and singly applied (40 to 70 mg) onto the philtrum skin surface using a plastic stick.
At this locus, cool and cold sensations in the skin may be experienced and rated for time of onset and intensity. The intensity of the subjective skin sensation is rated as 0, 1, 2 or 3 with: 0 as no change; 1 as slight coolness, or cold; 2 as clear-cut signal of coolness or cold; and 3 as robust cooling or cold. The intervals for recording are 5 to 10 minutes, until two successive zeroes are obtained. The onset of drug action is taken as the time to reach 2 units of coolness intensity, and offset of drug action is the time when coolness intensity drops below 2, after previously surpassing 2 units. The duration of cooling action is defined as the offset time minus the onset time.

The test system of series [3] is oropharyngeal surface (non-keratinized stratified epithelium). The series can be described thus: Oropharyngeal surface bioassay: ODT followed by chili pepper sauce challenge. The class given is in vivo, human. Details: key to Non-Keratinized Stratified Epithelia (NKSE) Oropharyngeal Surface, attenuation of chili pepper sauce irritation: If there was no attenuation of the challenge stimuli, the score was (0); if there was partial inhibition, the score was (+); if there was complete attenuation of the irritant signal, the score was (++). The conditions noted are these: for Non-Keratinized Stratified Epithelia (NKSE) Oropharyngeal Surface, attenuation of chili pepper sauce irritation: ODT containing 2.5 to 3 mg of active ingredient, chili pepper sauce 45 minutes later; for effect on the response to the chili pepper sauce: same test conditions. An excerpt:
Bioassay on Non-Keratinized Stratified Epithelium: Oropharyngeal Surface
A number of irritants have been evaluated for evoking the cough sensation as a measure of pharygeal sensitivity (see, e.g., Morice et al., 2001, “Cough Challenge in the Assessment of Cough Reflex”, Brit. J. Clin. Pharmacol., Vol. 52, pp. 365-375). Usually, citric acid or capsaicin is delivered via the inhalation route to volunteers and the number of coughs counted. […] The chili pepper sauce mixes with the saliva and the saliva is then deposited on the posterior oropharynx. The chili pepper sauce used was Yank Sing® Chili Pepper Sauce (YS Gourmet Productions, Inc., PO Box 26189, San Francisco, Calif. 94126) and is a well-known condiment for use with dim sum (Chinese tea lunch). The sensations associated with the chili pepper sauce are located in the posterior wall of the mouth and are clearly recognized by the test subject and associated with a desire to clear the throat.
The ODT was formulated by taking an ingredient, dissolving it in absolute ethanol, and then adding 10% by weight of maltitol, and 90% by weight of mannitol, and then an equal volume of distilled water. The mixture was the stirred with a glass rod, and dispensed onto a piece of wax paper with a disposable plastic pipette. The individual dried tablets weighed on average 150 mg each and when on the dorsal surface of the tongue, dissolved completely in saliva and coated the oropharyngeal surface. On average, the amount of the test substance was 2.5 to 3 mg per tablet.
To test for anti-nociceptive activity, the ODT containing the test compound was first administered onto the dorsal surface of the tongue; 45 to 50 minutes later, the chili-pepper sauce challenge is administered. At this time, the coolness sensations from the test compound have dissipated and the test is to determine if an anti-nociceptive effect remains. Results were reported as follow: If there was no attenuation of the challenge stimuli, the score was (0), if there was partial inhibition, the score was (+), and if there was complete attenuation of the irritant signal, the score was (++). In the presence of an ODT containing an active ingredient that results in a (++) score, the irritative signals were completely absent, yet the salty taste used in the soy sauce of the condiment could be readily identified and tasted.
In one formulation (used in the biological evaluation studies described herein), orally disintegrating tablets (ODTs) were prepared using an 80:20 by weight mixture of mannitol-maltitol (Pearlitol™ and Sweetpearl™, Roquette Freres, France). This carrier has the advantage of completely masking bitter tastes that might be present in some of the test compounds. The test compound was first mixed with the mannitol-maltitol using a mortar and pestle, and then suspended in an equal volume of 10:90 v/v ethanol-distilled water. A disposable pipette was then used to aliquot the liquid mixture onto a sheet of wax paper and dried at room temperature. The dried tablets were then weighed and sorted. It was found by experiment that an 80 mg tablet containing 2 to 3 mg of test compound dissolved within 15 seconds when placed on the dorsal surface of the tongue and provided a good test dose.

Series [4] concerns dorsal surface of the tongue. The conditions noted are these: 6 subjects; filter paper on dorsal surface of tongue, 30 seconds; cited from earlier work.
For series [5], the system named is TA1535 strain. The following applies: MSDS Number 2984; cited from earlier work.

As to `CCCOC(=O)CNC(=O)[C@@H]1C[C@H](C)CC[C@H]1C(C)C` [Gly-O-nPr, [((1R,2S,5R)-2-isopropyl-5-methyl-cyclohexanecarbonyl)-amino]-acetic acid n-propyl ester], in series [1], the “Non-Keratinized Stratified Epithelia (NKSE) Ocular Surface (min), duration of cooling” value is given as 54 min and the “rank order of duration of action of ocular wipes” value is listed as “Gly-O-iPr>>Gly-O-nPr>Gly-O-Et”. Moreover, the “Keratinized Stratified Epithelia Philtrum Skin (min), duration of cooling” value in series [2] is reported as 42 min. In series [3], the “Non-Keratinized Stratified Epithelia (NKSE) Oropharyngeal Surface, attenuation of chili pepper sauce irritation” value came out at 0. Also, the “effect on the response to the chili pepper sauce” value in series [3] (ODT) is on record as “not effective”.

On to `CC(C)[C@@H]1CC[C@@H](C)C[C@H]1O` [(−)-menthol, (1R,2S,5R)-2-isopropyl-5-methyl-cyclohexanol], for which the “average Threshold for cooling on the tongue” value in series [4] was 0.25 µg.

`CCCCOC(=O)CNC(=O)[C@@H]1C[C@H](C)CC[C@H]1C(C)C` [Gly-O-nBu, [((1R,2S,5R)-2-isopropyl-5-methyl-cyclohexanecarbonyl)-amino]-acetic acid n-butyl ester]: in series [1], the “Non-Keratinized Stratified Epithelia (NKSE) Ocular Surface (min), duration of cooling” value amounted to 35 min. Also, in series [2], the “Keratinized Stratified Epithelia Philtrum Skin (min), duration of cooling” value came to 38 min. In addition, the “Non-Keratinized Stratified Epithelia (NKSE) Oropharyngeal Surface, attenuation of chili pepper sauce irritation” value in series [3] was 0.

With `CCOC(=O)CNC(=O)[C@@H]1C[C@H](C)CC[C@H]1C(C)C` [Gly-O-Et, [((1R,2S,5R)-2-isopropyl-5-methyl-cyclohexanecarbonyl)-amino]-acetic acid ethyl ester], in series [1], the “Non-Keratinized Stratified Epithelia (NKSE) Ocular Surface (min), duration of cooling” value turned out to be 15 min and the “rank order of duration of action of ocular wipes” value is reported as “Gly-O-iPr>>Gly-O-nPr>Gly-O-Et”. Also, the “increase in duration of cooling on the ocular surface” value in series [1] (concentration increased from 1 mg/mL to 2 mg/mL) was 15 min. In series [1] (concentration increased from 1 mg/mL to 5 mg/mL), the “increase in duration of cooling on the ocular surface” value turned out to be 22 min. In addition, the “Keratinized Stratified Epithelia Philtrum Skin (min), duration of cooling” value in series [2] amounted to 24 min. Moreover, in series [3] (ODT), the “sensation on the oropharyngeal surface” value is reported as “refreshing cooling sensation” and the “effect on the response to the chili pepper sauce” value is on record as “not effective”. For the same compound, the “Non-Keratinized Stratified Epithelia (NKSE) Oropharyngeal Surface, attenuation of chili pepper sauce irritation” value in series [3] is given as 0. For the same compound, the “mutagenicity, Ames test” value in series [5] was “weakly mutagenic”.

For the compound `COC(=O)CNC(=O)[C@@H]1C[C@H](C)CC[C@H]1C(C)C` [Gly-O-Me, [((1R,2S,5R)-2-isopropyl-5-methyl-cyclohexanecarbonyl)-amino]-acetic acid methyl ester], in series [1], the “Non-Keratinized Stratified Epithelia (NKSE) Ocular Surface (min), duration of cooling” value came out at 5 min. In series [2], the “Keratinized Stratified Epithelia Philtrum Skin (min), duration of cooling” value came to 10 min. For the same compound, the “Non-Keratinized Stratified Epithelia (NKSE) Oropharyngeal Surface, attenuation of chili pepper sauce irritation” value in series [3] worked out at 0.
